Consider 2 compounds from patent US20240041877A1, “DOSAGE REGIME AND METHOD FOR TREATING PULMONARY ARTERIAL HYPERTENSION” (Altavant Sciences GmbH, priority 2019, published 2024).

Molecules are shown by their SMILES. Read-outs that look alike come from different tables or passages of the source.

The series in a line: Part 1 (SAD): urine pharmacokinetics (amount excreted, renal clearance) after a single oral dose of KAR5585. Conditions: for CL renal: human. Type of series: in vivo, human. How it is done:
Renal clearance of KAR5417 was calculated from the area under the plasma time concentration curve (AUC0-96) for KAR5417 and the amount of KAR5417 recovered in urine (Table 21).

Where [1] appears, read: KAR5585 in urine, 100 mg KAR5585 single oral dose, mean.
[2] abbreviates: KAR5585 in urine, 200 mg KAR5585 single oral dose, mean.
The mark [3] stands for this setting: KAR5585 in urine, 400 mg (Fasted) KAR5585 single oral dose, mean.
Setting [4] is: KAR5585 in urine, 400 mg (Fed) KAR5585 single oral dose, mean.
The mark [5] stands for this setting: KAR5585 in urine, 700 mg KAR5585 single oral dose, mean.

As to `Nc1nc(O[C@H](c2ccc(Cl)cc2-c2ccccc2)C(F)(F)F)cc(N2CCC3(CC2)CN[C@H](C(=O)O)C3)n1` [KAR5417, (S)-8-(2-amino-6-((R)-1-(5-chloro-[1,1T-biphenyl]-2-yl)-2,2,2-trifluoroeth-oxy)pyrimidin-4-yl)-2,8-diazaspiro[4.5]decane-3-carboxylic acid], the “highest amount excreted in urine” value (400 mg fed Cohort (Cohort 3B)) is listed as 0.331 % of the dose. Besides, the “Amount Excreted (Ae)” value was found to be 233 µg (KAR5417 in urine, 100 mg KAR5585 single oral dose, mean); 211 µg (KAR5417 in urine, 200 mg KAR5585 single oral dose, mean); 769 µg (KAR5417 in urine, 400 mg (fasted) KAR5585 single oral dose, mean); 1260 µg (KAR5417 in urine, 400 mg (fed) KAR5585 single oral dose, mean); 998 µg (KAR5417 in urine, 700 mg KAR5585 single oral dose, mean); 1170 µg (KAR5417 in urine, 1200 mg KAR5585 single oral dose, mean). Besides, the “Amount Excreted (Ae)” value (KAR5417 in urine, 2000 mg KAR5585 single oral dose, mean) is 2130 µg. Further, the “Total Excreted (%)” value came out at 0.245% (KAR5417 in urine, 100 mg KAR5585 single oral dose, mean, assuming complete conversion of KAR5585 to KAR5417); 0.111% (KAR5417 in urine, 200 mg KAR5585 single oral dose, mean, assuming complete conversion of KAR5585 to KAR5417); 0.202% (KAR5417 in urine, 400 mg (fasted) KAR5585 single oral dose, mean, assuming complete conversion of KAR5585 to KAR5417); 0.331% (KAR5417 in urine, 400 mg (fed) KAR5585 single oral dose, mean, assuming complete conversion of KAR5585 to KAR5417); 0.150% (KAR5417 in urine, 700 mg KAR5585 single oral dose, mean, assuming complete conversion of KAR5585 to KAR5417); 0.102% (KAR5417 in urine, 1200 mg KAR5585 single oral dose, mean, assuming complete conversion of KAR5585 to KAR5417). For the same compound, the “Total Excreted (%)” value (KAR5417 in urine, 2000 mg KAR5585 single oral dose, mean, assuming complete conversion of KAR5585 to KAR5417) is 0.112%. The CL renal is 2.62 to 4.93 mL/min (plasma and urine, oral, from plasma AUC0-96 and amount recovered in urine, read-out: Renal clearance, range across doses); 4.93 mL/min (urine and plasma, po, 100 mg, KAR5417, 100 mg KAR5585 single oral dose, mean, read-out: CLR (converted)); 2.67 mL/min (urine and plasma, po, 200 mg, KAR5417, 200 mg KAR5585 single oral dose, mean, read-out: CLR (converted)); 3.62 mL/min (urine and plasma, po, 400 mg, KAR5417, 400 mg (fasted) KAR5585 single oral dose, mean, read-out: CLR (converted)); 3.18 mL/min (urine and plasma, po, 400 mg, KAR5417, 400 mg (fed) KAR5585 single oral dose, mean, read-out: CLR (converted)); 3.18 mL/min (urine and plasma, po, 700 mg, KAR5417, 700 mg KAR5585 single oral dose, mean, read-out: CLR (converted)). The CL renal was 2.62 mL/min (urine and plasma, po, 1200 mg, KAR5417, 1200 mg KAR5585 single oral dose, mean, read-out: CLR (converted)); 3.43 mL/min (urine and plasma, po, 2000 mg, KAR5417, 2000 mg KAR5585 single oral dose, mean, read-out: CLR (converted)).

`CCOC(=O)[C@@H]1CC2(CCN(c3cc(O[C@H](c4ccc(Cl)cc4-c4ccccc4)C(F)(F)F)nc(N)n3)CC2)CN1` [KAR5585, (S)-ethyl 8-(2-amino-6-((R)-1-(5-chloro-[1,1′-biphenyl]-2-yl)-2,2,2-trifluoroethoxy)pyrimidin-4-yl)-2,8-diazaspiro[4.5]decane-3-carboxylate]: the “Amount Excreted (Ae)” value under setting [1] worked out at 0 µg; the “Amount Excreted (Ae)” value under setting [2] was found to be 0 µg; the “Amount Excreted (Ae)” value under setting [3] came to 13.8 µg; the “Amount Excreted (Ae)” value under setting [4] amounted to 0 µg; the “Amount Excreted (Ae)” value under setting [5] came to 0 µg; the “Amount Excreted (Ae)” value (KAR5585 in urine, 2000 mg KAR5585 single oral dose, mean) was 1.50 µg. Also, the “Total Excreted (%)” value under setting [1] was determined as 0%; the “Total Excreted (%)” value under setting [2] is listed as 0%; the “Total Excreted (%)” value under setting [3] stood at 0.00346%; the “Total Excreted (%)” value under setting [4] is reported as 0%; the “Total Excreted (%)” value under setting [5] stood at 0%. Besides, for the setting “urine and plasma, po, 2000 mg, KAR5585, 2000 mg KAR5585 single oral dose, mean, read-out: CLR (converted)”, the CL renal is 0.0383 mL/min.
